In US8809342B2, “Glucagon receptor modulators” (Pfizer Inc., priority 2010, dated 2014):

Molecular target: T1, human glucagon receptor (Homo sapiens, UniProt P47871)
T1 construct: expressed in transfected cells; host or cells: CHO-K1 cells, stably transfected
Assay: Glucagon cAMP assay (Cisbio cAMP detection)
Format: cell-based
Description: The Cisbio cAMP detection assay is used to determine the ability of punitive glucagon antagonist to block glucagon induced cAMP production. Potential glucagon antagonists are re-suspended and diluted in 100% DMSO. Prior to use in the Glucagon cAMP assay 100×DMSO compound stocks are diluted 20× with DMEM-F12 media (Invitrogen) containing either 0.1% or 4% BSA. 2 uls of 5× compound stocks are spotted into the appropriate wells of low binding white solid bottom 384 well plates (Corning). 2 uls of 5% DMSO or known glucagon antagonist are added to each plate to define the assay window. CHOK1 cells stably transfected with the human glucagon receptor are removed from culture flasks with cell dissociation buffer. Cell pellets are re-suspended, at a concentration of 8.3e^5 cells/ml in DMEM-F12 with or without 4% BSA and 200 uM IBMX. 6 uls of cell suspensions are added to the assay plates. Plates are incubated for 20 min at room temperature prior to the addition of a 100 pM challenge dose of glucagon. On a separate plate glucagon dose response curves are run to determine the EC50 of glucagon. After a 30 min room temperature incubation the reaction is terminated by the addition of lysis buffer containing the cAMP detection reagents. Plates are incubated for an additional 60 min at room temperature prior to being read on the Perkin Elmer fluorescent plate reader. Raw is converted to nM of cAMP produced based on a cAMP standard curve. Converted data is then analyzed using the Pfizer data analysis program. IC50 values are determined from the generated sigmoidal dose response curves. Kb values are the calculated using a modified Cheng-Prusoff equation.

T1 sequence (P47871 26-477): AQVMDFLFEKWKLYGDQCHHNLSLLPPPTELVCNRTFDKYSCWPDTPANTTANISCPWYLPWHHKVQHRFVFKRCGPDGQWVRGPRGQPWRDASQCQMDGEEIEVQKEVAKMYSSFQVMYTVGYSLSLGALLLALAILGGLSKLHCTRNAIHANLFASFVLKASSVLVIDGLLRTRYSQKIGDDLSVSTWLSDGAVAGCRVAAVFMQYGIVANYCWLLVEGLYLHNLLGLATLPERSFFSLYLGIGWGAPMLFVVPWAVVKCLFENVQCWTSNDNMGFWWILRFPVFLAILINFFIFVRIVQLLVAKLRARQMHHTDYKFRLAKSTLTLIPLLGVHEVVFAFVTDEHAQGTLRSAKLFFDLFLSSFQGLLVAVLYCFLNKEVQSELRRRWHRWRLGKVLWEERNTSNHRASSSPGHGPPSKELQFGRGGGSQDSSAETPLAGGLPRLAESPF

Q: For `CC(C)CC(Nc1ccc(-c2ccc(C(F)(F)F)cc2)cc1)c1ccc(C(=O)Nc2nn[nH]n2)cn1` (racemic) [Example 2.13, (+/−)-6-(3-methyl-1-(4′-(trifluoromethyl)biphenyl-4-ylamino)butyl)-N-(2H-tetrazol-5-yl)nicotinamide], which Kb is on record?
A: 1.9 µM

Q: For `CCCC(Nc1ccc(-c2ccc(C(F)(F)F)cc2)nn1)c1ccc(C(=O)NCCC(=O)O)cc1` (racemic) [Example 2.14, (+/−)-3-(4-(1-(6-(4-(trifluoromethyl)phenyl)pyridazin-3-ylamino)butyl)benzamido)propanoic acid], which Kb is on record?
A: 0.29 µM

Q: Which Kb does the source give for `CCCC(Nc1cnc(-c2ccc(C(F)(F)F)cc2)nc1)c1ccc(C(=O)NCCC(=O)O)cc1` (racemic) [Example 2.15, (+/−)-3-(4-(1-(2-(4-(trifluoromethyl)phenyl)pyrimidin-5-ylamino)butyl)benzamido)propanoic acid] here?
A: 0.12 µM

Q: How did the Kb turn out when `CC(C)CC(Oc1ccc(-c2ccc(C(F)(F)F)cc2)cc1)c1ccc(C(=O)NCCC(=O)O)cn1` (racemic) [Example 3.1, (+/−)-3-(6-(3-methyl-1-(4′-(trifluoromethyl)biphenyl-4-Yloxy)butyl)nicotinamido)propanoic acid] was run?
A: 1.5 µM

Q: How did the Kb turn out when `CC(C)CC(Oc1ccc(C(=O)NCCC(=O)O)cn1)c1ccc(-c2ccc(C(F)(F)F)cc2)cc1` (racemic) [Example 3.2, (+/−)-3-(6-(3-methyl-1-(4′-(trifluoromethyl)biphenyl-4-yl)butoxy)nicotinamido)propanoic acid] was run?
A: 1.9 µM

Q: `CC(Oc1ccc(-c2ccc(C(F)(F)F)cc2)cc1)c1ccc(C(=O)NCCC(=O)O)cn1` (racemic) [Example 3.3, (+/−)-3-(6-(1-(4′-(trifluoromethyl)biphenyl-4-yloxy)ethyl)nicotinamido) propanoic acid] was tested. Which Kb did it give?
A: 6 µM

Q: For `O=C(O)CCNC(=O)c1ccc(NC(c2cnc(-c3ccc(C(F)(F)F)cc3)nc2)C2CCCCC2)nc1` (racemic) [Example 4.2, (+/−)-N-({6-[(cyclohexyl{2-[4-(trifluoromethyl)phenyl]pyrimidin-5-yl}methyl)amino]pyridin-3-yl}carbonyl)-beta-alanine], which Kb is on record?
A: 0.031 µM

Q: Which Kb does the source give for `CCCC(Nc1cnc(-c2ccc(C(F)(F)F)cc2)cn1)c1ccc(C(=O)NCCC(=O)O)cc1` (racemic) [Example 4.3, (±)-3-(4-(1-((5-(4-(trifluoromethyl)phenyl)pyrazin-2-yl)amino)butyl)benzamido)propanoic acid] here?
A: 0.099 µM

Q: How did the Kb turn out when `O=C(O)CCNC(=O)c1ccc(NC(c2ccc(-c3ccc(C(F)(F)F)cc3)cc2)C2CCOCC2)nc1` (racemic) [Example 4.7, (±)-3-(6-(((tetrahydro-2H-pyran-4-yl)(4′-(trifluoromethyl)-[1,1′-biphenyl]-4-yl)methyl)amino)nicotinamido)propanoic acid] was run?
A: 0.22 µM

Q: With `CCCC(Nc1ccc(C(=O)NCCC(=O)O)cn1)c1ccc(-c2ccc(C(F)(F)F)cc2)c(C#N)c1` (racemic) [Example 4.8, (±)-3-(6-((1-(2-cyano-4′-(trifluoromethyl)-[1,1′-biphenyl]-4-yl)butyl)amino)nicotinamido)propanoic acid] as the compound, how does the Kb read?
A: 0.2 µM

Q: How did the Kb turn out when `O=C(O)CCNC(=O)c1ccc(NC(CCC(F)(F)F)c2ccc(-c3ccc(C(F)(F)F)cc3)cc2)nc1` (racemic) [Example 4.13, (+/−)-3-(6-(4,4,4-trifluoro-1-(4′-(trifluoromethyl)biphenyl-4-yl)butylamino)nicotinamido)propanoic acid] was run?
A: 0.7 µM

Q: For `CC(C)CC(Nc1ccc(C(=O)NCCC(=O)O)cn1)c1ccc(-c2ccc(C(F)(F)F)cn2)cc1` (racemic) [Example 4.22, (+/−)-3-(6-(3-methyl-1-(4-(5-(trifluoromethyl)pyridin-2-yl)phenyl)butylamino)nicotinamido)propanoic acid], which Kb is on record?
A: 0.053 µM

Q: With `CC(C)CC(Nc1ccc(C(=O)N(C)CCC(=O)O)cn1)c1ccc(-c2ccc(C(F)(F)F)cc2)cc1` (single isomer, unassigned) [Example 4.6, 3-(N-methyl-6-((3-methyl-1-(4′-(trifluoromethyl)-[1,1′-biphenyl]-4-yl)butyl)amino)nicotinamido)propanoic acid (single enantiomer)] as the compound, how does the Kb read?
A: 0.053 µM

Q: `CC(C)C(Nc1ccc(C(=O)NCCC(=O)O)cn1)c1ccc(-c2ccc(C(F)(F)F)cc2)cc1` (single isomer, unassigned; (+)) [Example 1.14, (+)-3-(6-(2-methyl-1-(4′-(trifluoromethyl)biphenyl-4-yl)propylamino)nicotinamido)propanoic acid] was tested. Which Kb did it give?
A: 0.99 µM

Q: Which Kb does the source give for `CC(C)C(Nc1ccc(C(=O)NCCC(=O)O)cn1)c1ccc(-c2ccc(C(F)(F)F)cc2)cc1` (single isomer, unassigned; (-)) [Example 1.15, (−)-3-(6-(2-methyl-1-(4′-(trifluoromethyl)biphenyl-4-yl)propylamino)nicotinamido) propanoic acid] here?
A: 0.078 µM

Q: `CC(C)CC(Nc1ncc(C(=O)NCCC(=O)O)cn1)c1ccc(-c2ccc(C(F)(F)F)cc2)cc1` (single isomer, unassigned; isomer 1) [Example 1.5, 3-(2-(3-methyl-1-(4′-(trifluoromethyl)biphenyl-4-yl)butylamino)pyrimidine-5-carboxamido)propanoic acid, Isomer 1] was tested. Which Kb did it give?
A: 2.9 µM

Q: With `CCCC(Nc1ccc(C(=O)NCCC(=O)O)cn1)c1ccc(-c2ccc(C(F)(F)F)cc2)cc1` (single isomer, unassigned; isomer 1) [Example 1.8, 3-(6-(1-(4′-(trifluoromethyl)biphenyl-4-yl)butylamino)nicotinamido) propanoic acid, Isomer 1] as the compound, how does the Kb read?
A: 1 µM

Q: For `CCC(Nc1ccc(C(=O)NCCC(=O)O)cn1)c1ccc(-c2ccc(C(F)(F)F)cc2)cc1` (single isomer, unassigned; isomer 1) [Example 1.12, 3-(6-(1-(4′-(trifluoromethyl)biphenyl-4-yl)propylamino)nicotinamido) propanoic acid, Isomer 1], which Kb is on record?
A: 0.56 µM

Q: With `CC(C)CC(Nc1cnc(C(=O)NCCC(=O)O)cn1)c1ccc(-c2ccc(C(F)(F)F)cc2)cc1` (single isomer, unassigned; isomer 1) [Example 1.17, 3-(5-(3-methyl-1-(4′-(trifluoromethyl)biphenyl-4-yl)butylamino)pyrazine-2-carboxamido)propanoic acid, Isomer 1] as the compound, how does the Kb read?
A: 1.1 µM

Q: `Cc1cc(NC(CC(C)C)c2ccc(C(=O)NCCC(=O)O)cn2)cc(C)c1-c1ccc(C(F)(F)F)cc1` (single isomer, unassigned; isomer 1) [Example 2.2, 3-(6-(1-(2,6-dimethyl-4′-(trifluoromethyl)biphenyl-4-ylamino)-3-methylbutyl)nicotinamido)propanoic acid, Isomer 1] was tested. Which Kb did it give?
A: 0.054 µM

Q: With `CC(C)CC(Nc1ccc(-c2ccc(C(F)(F)F)cc2)cc1)c1ccc(C(=O)NCCC(=O)O)cn1` (single isomer, unassigned; isomer 1) [Example 2.5, 3-(6-(3-methyl-1-(4′-(trifluoromethyl)biphenyl-4-ylamino)butyl)nicotinamido)propanoic acid, Isomer 1] as the compound, how does the Kb read?
A: 0.76 µM

Q: Which Kb does the source give for `CCCC(Nc1cnc(-c2ccc(C(F)(F)F)cc2)nc1)c1ccc(C(=O)NCCC(=O)O)cc1` (single isomer, unassigned; isomer 1) [Example 2.16, 3-(4-(1-(2-(4-(trifluoromethyl)phenyl)pyrimidin-5-ylamino)butyl)benzamido)propanoic acid, Isomer 1] here?
A: 0.12 µM

Q: `Cc1cc(NC(CC(C)C)c2ccc(C(=O)NCCC(=O)O)cn2)cnc1-c1ccc(Cl)cc1` (single isomer, unassigned; isomer 1) [Example 4.16, 3-(6-(1-(6-(4-chlorophenyl)-5-methylpyridin-3-ylamino)-3-methylbutyl)nicotinamido)propanoic acid, Isomer 1] was tested. Which Kb did it give?
A: 0.18 µM

Q: `CC(C)C[C@@H](Nc1ccc(C(=O)NCCC(=O)O)cn1)c1ccc(-c2ccc(C(F)(F)F)cc2)nc1` (single isomer, unassigned; isomer 1) [Example 4.20, 3-(6-(3-methyl-1-(6-(4-(trifluoromethyl)phenyl)pyridin-3-yl)butylamino)nicotinamido)propanoic acid, Isomer 1] was tested. Which Kb did it give?
A: 0.061 µM

Q: `CC(C)CC(Nc1ncc(C(=O)NCCC(=O)O)cn1)c1ccc(-c2ccc(C(F)(F)F)cc2)cc1` (single isomer, unassigned; isomer 2) [Example 1.6, 3-(2-(3-methyl-1-(4′-(trifluoromethyl)biphenyl-4-yl)butylamino)pyrimidine-5-carboxamido)propanoic acid, Isomer 2] was tested. Which Kb did it give?
A: 0.21 µM

Q: For `CCCC(Nc1ccc(C(=O)NCCC(=O)O)cn1)c1ccc(-c2ccc(C(F)(F)F)cc2)cc1` (single isomer, unassigned; isomer 2) [Example 1.9, 3-(6-(1-(4′-(trifluoromethyl)biphenyl-4-yl)butylamino)nicotinamido) propanoic acid, Isomer 2], which Kb is on record?
A: 0.13 µM

Q: With `CCC(Nc1ccc(C(=O)NCCC(=O)O)cn1)c1ccc(-c2ccc(C(F)(F)F)cc2)cc1` (single isomer, unassigned; isomer 2) [Example 1.13, 3-(6-(1-(4′-(trifluoromethyl)biphenyl-4-yl)propylamino)nicotinamido) propanoic acid, Isomer 2] as the compound, how does the Kb read?
A: 0.15 µM
